# In ChEMBL document CHEMBL2029206, “Design, synthesis and biological evaluation of potent NAD+-dependent DNA ligase inhibitors as potential antibacterial agents. Part 2: 4-amino-pyrido[2,3-d]pyrimidin-5(8H)-ones” (Bioorg Med Chem Lett, 2012):
# Calls of active or inactive are those of the source. The calls are words filed in the database; no cut-off is given here.
# How the values were obtained:
# [1] = tested on: Escherichia coli; test: Antibacterial activity against wild-type Escherichia coli; assay type: functional, organism-based
# [2] = Inhibition of human ATP-dependent DNA ligase
# [3] = Inhibition of Escherichia coli NAD+dependent DNA ligase
# [4] = tested on: Streptococcus pneumoniae; test: Antibacterial activity against Streptococcus pneumoniae ATCC 10015; assay type: functional
# [5] = tested on: Staphylococcus aureus; test: Antibacterial activity against Staphylococcus aureus ATCC 29213; assay type: functional
# [6] = tested on: Haemophilus influenzae; test: Antibacterial activity against Haemophilus influenzae ATCC 51907; assay type: functional
Compound,Activity [1],IC50 [2],IC50 [3],MIC [4],MIC [5],MIC [6]
C[C@@H]1CCCC[C@@H]1Oc1nc(N)c2c(=O)ccn(CCO)c2n1 (relative stereo),inactive,> 55 µM,57 nM,–,–,–
C[C@H]1CCCC[C@H]1Oc1nc(N)c2c(=O)ccn([C@@H]3CC[C@@H]4C[C@H]3OC4=O)c2n1,inactive,> 55 µM,28 nM,> 100 µM,> 100 µM,–
Nc1nc(NC2CCCC2)nc2c1c(=O)ccn2CCO,inactive,> 55 µM,> 10000 nM,–,–,–
C[C@H]1CCCC[C@H]1Oc1nc(N)c2c(=O)ccn(CC3CC=CC3)c2n1 (relative stereo),inactive,> 55 µM,20 nM,> 100 µM,> 100 µM,–
Nc1nc(SC2CCCC2)nc2c1c(=O)ccn2[C@H]1CCC[C@@H]1O (relative stereo),inactive,> 55 µM,63 nM,> 100 µM,25 µM,> 100 µM
C[C@H]1CCCC[C@H]1Oc1nc(N)c2c(=O)ccn(Cc3ccc(C(=O)O)cc3)c2n1 (relative stereo),inactive,> 55 µM,19 nM,> 100 µM,> 100 µM,–
C[C@H]1CCCC[C@H]1Oc1nc(N)c2c(=O)ccn(CC3C[C@@H](O)[C@@H](O)C3)c2n1 (stereo partly specified),inactive,> 55 µM,68 nM,> 100 µM,> 100 µM,–
C[C@H]1CCCC[C@H]1Oc1nc(N)c2c(=O)ccn(CCC#N)c2n1 (relative stereo),inactive,> 55 µM,36 nM,> 100 µM,> 100 µM,–
C[C@H]1CC[C@H](Oc2nc(N)c3c(=O)ccn([C@H]4CCC[C@@H]4O)c3n2)CC1,inactive,> 55 µM,39 nM,6.3 µM,18.8 µM,75 µM
C[C@H]1CC[C@H](Oc2nc(N)c3c(=O)ccn(Cc4ccc(C(=O)O)s4)c3n2)CC1,inactive,> 55 µM,490 nM,83.3 µM,> 100 µM,25 µM
C[C@H]1CC[C@H](Oc2nc(N)c3c(=O)ccn([C@H]4CC(C(N)=O)C[C@@H]4O)c3n2)CC1 (stereo partly specified),inactive,> 55 µM,48 nM,20.8 µM,> 100 µM,100 µM
CC1CCC(Oc2nc(N)c3c(=O)ccn([C@H]4CCC[C@@H]4O)c3n2)C(C)C1 (relative stereo),inactive,> 55 µM,170 nM,16.7 µM,> 100 µM,50 µM
Nc1nc(OC2CCC(C(F)(F)F)CC2)nc2c1c(=O)ccn2[C@H]1CCC[C@@H]1O (relative stereo),inactive,> 55 µM,350 nM,8.4 µM,50 µM,> 100 µM
C[C@H]1CC[C@H](Oc2nc(N)c3c(=O)ccn(C4[C@@H](O)CC[C@@H]4O)c3n2)CC1,inactive,> 55 µM,76 nM,5.2 µM,25 µM,100 µM
CC(C)Oc1nc(N)c2c(=O)ccn(CCO)c2n1,inactive,> 55 µM,1060 nM,–,–,–
C[C@H]1CCCC[C@H]1Oc1nc(N)c2c(=O)ccn([C@@H]3CCC[C@H]3O)c2n1,inactive,> 55 µM,40 nM,50 µM,100 µM,–

Compound,Activity [1],IC50 [2],IC50 [3],MIC [4],MIC [5],MIC [6]
Nc1nc(SC2CCCC2)nc2c1c(=O)ccn2CCO,inactive,> 55 µM,350 nM,–,–,–
C[C@H]1CC[C@H](Oc2nc(N)c3c(=O)ccn([C@H]4CC(C(=O)O)C[C@@H]4O)c3n2)CC1 (stereo partly specified),inactive,> 55 µM,51 nM,83.3 µM,> 100 µM,> 100 µM
Nc1nc(OCCF)nc2c1c(=O)ccn2CCO,inactive,> 55 µM,1950 nM,–,–,–
C[C@H]1CC[C@H](Oc2nc(N)c3c(=O)ccn([C@@H]4CCC[C@H]4O)c3n2)CC1,inactive,> 55 µM,190 nM,3.1 µM,37.5 µM,100 µM
Nc1nc(OC(CF)CF)nc2c1c(=O)ccn2CCO,inactive,> 55 µM,310 nM,–,–,–
C[C@H]1CCCC[C@H]1Oc1nc(N)c2c(=O)ccn([C@@H]3COC[C@H]3O)c2n1,inactive,> 55 µM,38 nM,100 µM,100 µM,–
C[C@H]1CCCC[C@H]1Oc1nc(N)c2c(=O)ccn([C@@H]3CCCC[C@H]3O)c2n1,inactive,> 55 µM,110 nM,75 µM,100 µM,–
Nc1nc(OC2CCC3(CC2)OCCO3)nc2c1c(=O)ccn2[C@H]1CCC[C@@H]1O (relative stereo),inactive,> 55 µM,90 nM,50 µM,> 100 µM,> 100 µM
C[C@H]1CC[C@H](Oc2nc(N)c3c(=O)ccn([C@H]4CC[C@H](O)[C@@H]4O)c3n2)CC1,inactive,> 55 µM,225 nM,4.2 µM,25 µM,> 100 µM
C[C@H]1CC[C@H](Oc2nc(N)c3c(=O)ccn(CCO)c3n2)CC1,inactive,> 55 µM,420 nM,–,–,–
Nc1nc(OC2CCC(Cl)CC2)nc2c1c(=O)ccn2[C@H]1CCC[C@@H]1O (relative stereo),inactive,> 55 µM,41 nM,6.3 µM,50 µM,75 µM
C[C@H]1CCCC[C@H]1Oc1nc(N)c2c(=O)ccn(CC(O)CF)c2n1 (relative stereo),inactive,> 55 µM,28 nM,100 µM,> 100 µM,–
C[C@H]1CCCC[C@H]1Oc1nc(N)c2c(=O)ccn(CC#N)c2n1 (relative stereo),inactive,> 55 µM,20 nM,> 100 µM,> 100 µM,–
C[C@H]1CCCC[C@H]1Oc1nc(N)c2c(=O)ccn(CC(O)CO)c2n1 (relative stereo),inactive,> 55 µM,79 nM,> 100 µM,> 100 µM,–
Nc1nc(OC2CCCC2)nc2c1c(=O)ccn2CCO,inactive,> 55 µM,510 nM,–,–,–
C[C@H]1CCCC[C@H]1Oc1nc(N)c2c(=O)ccn(Cc3cn[nH]c3)c2n1 (relative stereo),inactive,> 55 µM,36 nM,> 100 µM,> 100 µM,–
